Bounds are passed on as bounds.

Experiment [1] has as its target T1, RecG (Thermotoga maritima, UniProt Q9WY48).
T1 construct: made in house
T1 sequence (Q9WY48 1-780): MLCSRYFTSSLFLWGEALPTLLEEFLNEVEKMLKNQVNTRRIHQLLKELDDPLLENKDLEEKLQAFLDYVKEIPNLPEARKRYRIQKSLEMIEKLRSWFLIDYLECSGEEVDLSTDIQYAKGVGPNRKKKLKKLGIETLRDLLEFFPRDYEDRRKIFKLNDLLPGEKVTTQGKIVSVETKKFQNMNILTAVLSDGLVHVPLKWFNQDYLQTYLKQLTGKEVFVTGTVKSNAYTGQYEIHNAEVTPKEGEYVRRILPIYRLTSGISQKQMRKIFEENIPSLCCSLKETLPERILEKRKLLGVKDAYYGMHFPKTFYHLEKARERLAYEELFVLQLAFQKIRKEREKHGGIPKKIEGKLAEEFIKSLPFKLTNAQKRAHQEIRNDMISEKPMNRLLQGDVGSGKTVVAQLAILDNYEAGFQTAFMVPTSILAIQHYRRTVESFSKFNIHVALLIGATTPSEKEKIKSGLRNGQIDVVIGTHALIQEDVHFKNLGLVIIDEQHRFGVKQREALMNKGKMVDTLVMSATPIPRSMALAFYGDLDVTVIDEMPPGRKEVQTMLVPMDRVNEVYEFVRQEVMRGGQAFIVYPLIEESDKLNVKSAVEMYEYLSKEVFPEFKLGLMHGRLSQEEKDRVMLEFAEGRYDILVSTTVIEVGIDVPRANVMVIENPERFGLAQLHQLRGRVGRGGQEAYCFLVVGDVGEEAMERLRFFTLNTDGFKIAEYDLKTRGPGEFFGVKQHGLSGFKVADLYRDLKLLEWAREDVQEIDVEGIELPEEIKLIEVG
The experiment in a line: Steady-state ATPase rate measurements with phosphate biosensor MDCC-PBP. It counts as biochemical. The note with it: for Ki: 10 µM ATP, varying inhibitor; for tightness of binding (competitive inhibition): result in words. From the text: Steady-state measurements were made to gain an overall assessment of the reaction and the affinities of various nucleotides before investigating the individual steps in the ATPase cycle. A two-strand DNA junction, which contains two 20-bp regions of complementary and non-complementary sequences (A40:B40 Figure 1 and Table S1), was used in all these measurements. This forms a Y-shape structure and RecG translocates one single-stranded arm, but then remains bound to the end of the junction still hydrolyzing ATP [10].
All reactions with RecG and DNA were done at 20°C in a buffer containing 50 mM Tris⋅acetate (pH 8.0), 30 mM potassium acetate, 3 mM magnesium acetate and 1 mM DTT. ATPase measurements using MDCC-PBP were taken in the presence of a Pi mop, as described above. Steady-state ATPase measurements were taken in a solution (60 µl) at 20°C, containing 10 nM RecG, 500 nM DNA junction (A40∶B40, see Table S1) and 10 µM MDCC-PBP with varying nucleotide concentrations as substrate or inhibitor [23].

The target of experiment [2] is T1, RecG. The experiment in a line: Titrations of RecG into fluorescent nucleotides in the absence of DNA. It counts as binding. The method, then:
The two phases of this fluorescence increase with excess RecG⋅DNA would therefore relate to formation of bound mantATP (1.5-fold intensity increase relative to free nucleotide) and bound mantADP (4.9-fold). This interpretation was supported by titrations of RecG into the fluorescent nucleotides in the absence of DNA.
Steady-state fluorescence was measured using a Cary Eclipse fluorimeter (Varian) with a xenon light source. Absorbance spectroscopy was performed using a Beckman DU640 spectrophotometer.

Experiment [3] addresses T2, RecG⋅DNA(A40:B40) (Thermotoga maritima, UniProt Q9WY48).
T2 construct: made in house
T2 sequence (Q9WY48 1-780): T1 sequence (Q9WY48 1-780)
Put plainly: Single turnover mant fluorescence, excess RecG⋅DNA over mantATP. It counts as biochemical. The note with it: excess RecG⋅DNA(A40:B40). The method, then: Extra information relating to changes in a single ATPase cycle can be obtained by mixing excess RecG⋅DNA(A40:B40) with mantATP (Figure 4A). […] The first change in fluorescence is presumably due to binding. After fitting to a double exponential, the observed rate constant for the initial change was linearly dependent on RecG concentration over the small range possible (0.5 µM –2.5 µM), limited by protein precipitation at higher concentrations. Due to the low concentrations, a hyperbolic dependence would not be observed. The observed rate constant of the second increase in fluorescence, 0.22 (±0.05) s^−1 (Figure 4A), was independent of RecG concentration. This second phase is likely to be due to the cleavage step, leading to the formation of bound mantADP.
Figure 4 Kinetic measurement of mantATP with excess of RecG and DNA: binding, hydrolysis and Pi release. The concentrations for all experiments were 0.5 µM mantATP, 2.5 µM RecG, 5 µM DNA (A40:B40) and 10 µM MDCC-PBP (for Pi measurement). All measurements were carried out at 20°C in the buffer described in Materials and Methods. (A) Time course of mant fluorescence (solid line), mantADP formation (circles) and Pi release (dashed line), measured as described in materials and methods. […] (B) Simulation of these time courses, based upon a global model for a single turnover of mantATP as described in the text. (C) The time course of mant fluorescence upon mixing 0.5 µM mantATP and 2.5 µM RecG with 5 µM DNA junction (A40:B40) after a first mixing of 5 µM RecG and 1 µM mantATP and aging for 1 s.
(§1) Stopped-flow experiments were performed in a HiTech SF61DX2 apparatus (TgK Scientific Ltd, Bradford-on-Avon, UK) with a mercury-xenon light source and HiTech KinetAsyst 3 or Kinetic Studio 1 software. For MDCC-PBP fluorescence, the excitation wavelength used was 436 nm and a 455 nm cut-off filter (Schott glass) used to collect emitted light. The signal was calibrated using known concentrations of Pi. The solutions contained the Pi mop, to minimize phosphate contamination and comprising 0.01 unit ml^−1 bacterial purine nucleoside phosphorylase and 200 µM 7-methylguanosine. For mant fluorescence, 366 nm was used to excite and a 400 nm cut-off filter (Schott glass) used to collect light. Measurements of Cy3 fluorescence used 547 nm excitation and a 570 nm cut-off filter. In experiments described, the quoted concentrations are those in the mixing chamber, except where stated. Data were fitted to theoretical curves using the HiTech software or Grafit.

Experiment [4] deals with T2, RecG⋅DNA(A40:B40). Put plainly: Stopped-flow mant fluorescence: mant nucleotide binding to RecG⋅DNA, pseudo-first-order. The method, then:
MantATP binding to RecG⋅DNA(A40:B40) was measured under pseudo-first-order conditions, that is mantATP in large excess over the protein. Using the stopped-flow apparatus, several concentrations of mantATP were rapidly mixed with RecG⋅DNA and fluorescence followed with time. Each trace was fitted by a single exponential (Figure 3A) and the concentration dependence of the observed rate constants were fit well by a hyperbola (Figure 3B). […] As mantATP is also hydrolyzed, the rate of the forward reaction needs to be included, in this case limited by the cleavage step 2, as described later. The fit gives 1/K 1a as 24 (±4) µM, k +1b + k −1b + k +2 as 26.1 (±1.8) s^−1 and the intercept gives k −1b + k +2 as <1 s^−1. Given that k +2 is 0.2 s^–1 (see below), k −1b is <0.8 s^−1. Potentially, an alternative explanation for such a hyperbolic relationship could be preferential binding of either the 2′- or 3′-isomer of mantATP and then isomerization of the non-favored isomer. However, the observed rates in these measurements were several orders of magnitude faster than the likely isomerization rate. In order to assess whether the two isomers of mantATP and their interconversion are factors in any fluorescence traces for mantATP, an equivalent measurement was made using 3′-mant-2′-deoxyATP.
Figure 3 MantATP binding to RecG⋅DNA. MantATP at the micromolar concentrations shown was mixed in the stopped flow apparatus with 0.5 µM RecG and 2.5 µM DNA Junction (A40:B40) at 20°C in the buffer described in materials and methods. Individual traces (offset from each other) were fitted to single exponentials and the dependence of the rate constants on concentration was then fitted by a hyperbola. The points shown are averages of at least 3 measurements. The fit gives 1/K 1a as 24 (±4) µM and k +1b + k− 1b + k +2 as 26.1 (±1.8) s^−1 and the intercept was <1 s^–1 (Scheme in Figure 2B).
MantADP binding to RecG⋅DNA complex was measured under pseudo-first order conditions by stopped-flow fluorescence.
Figure 5 MantADP binding kinetics to RecG⋅DNA. MantADP at various concentrations was mixed in the stopped flow apparatus with 0.5 µM RecG and 2.5 µM DNA (A40:B40) under the conditions of Figure 4. Traces (not shown) were fitted by single exponentials. The rate constants are shown as a function of concentration and the best linear fit, gives a slope of 1.1 (±0.4) µM^−1s^−1 and an intercept of <1 s^−1.
as §1

The target of experiment [5] is T1, RecG. Put plainly: Phosphate-water oxygen exchange during hydrolysis. It counts as biochemical. The note with it: DNA present (A40∶B40), γ-18O3 nucleotide, 25°C. From the text:
In order to get information about the reverse of cleavage step 2 (scheme in Figure 2A), phosphate-water oxygen exchange measurements were done using (γ-^18O3)mantATP. Intermediate exchange can occur between terminal oxygens of the nucleotide and water during hydrolysis, giving information about the value of k +3 /k −2, as previously described. In this case, (γ-^18O3)mantATP was used as substrate and partial hydrolysis occurred in the presence of RecG⋅DNA, as described in the materials and methods section. The Pi had very similar distribution of oxygen-18 as with (γ-^18O3)mantATP, consistent with essentially little reversal of the cleavage step (k +3 /k −2≥9). This is consistent with a rapid release of Pi.
For intermediate exchange during ATP hydrolysis, 0.5 µM RecG and 1 mM (γ-^18O3)ATP or (γ-^18O3)mantATP were incubated for 10 min (+1 µM DNA A40∶B40, Table S1) or 20 min (- DNA) at 25°C in a volume of 100 µl in the buffer described below. Pi was analyzed for distribution of different ^18O-labeled species on a mass spectrometer as described previously, [37] except that during purification, the ^18O-labeled Pi was detected by MDCC-PBP, rather than radioactive tracers.
Supplementary file pone.0038270.s005.pdf: Table S2 Oxygen exchange during ATP or mantATP hydrolysis by RecG: distributions of oxygen-18 in the Pi product. Experiments were performed as described in Materials and Methods. The data were corrected for isotopic enrichment of the starting nucleotide, 93% for (γ-^18O3)mantATP and 98% for (γ-^18O3) ATP. […] Each distribution is the average of three mass spectral assays. Thus the distributions are for the product Pi as though the starting enrichment was 100%. In all cases there was very little oxygen exchange as shown by the large peak of (^18O3)Pi, in which all three γ-oxygens of ATP are retained. The distributions were then used to compute the ratio of rate constants for Pi release (k +3) and on-enzyme ATP resynthesis (k −2) as in Figure 2 [14], [37].

[6] abbreviates: 500 nM DNA junction (A40:B40), 20°C.
Setting [7] is: 20°C, 10 nM RecG, 500 nM DNA junction (A40:B40).

Usually Ki stands for the equilibrium dissociation constant of an inhibitor or competing ligand from its target. On RecG [1] (setting [6]), `Nc1ncnc2c1ncn2[C@@H]1O[C@H](COP(=O)(O)OP(=O)(O)NP(=O)(O)O)[C@@H](O)[C@H]1O` [AMPPNP] had a Ki of 44000 nM. Further, at RecG [1], the “tightness of binding (competitive inhibition)” value is listed as “bound weakly”.
Consider `Nc1ncnc2c1ncn2[C@@H]1O[C@H](CO[P@](=O)(O)O[P@](=O)(O)O[P@@](=O)(O)S)[C@@H](O)[C@H]1O` [ATPγS], for which the affinity on RecG [1] (setting [6]) corresponds to a Ki of 900 nM. Also, the “tightness of binding (competitive inhibition)” value on RecG [1] was “bound tightly”. This compound showed a rate of hydrolysis at RecG [1] (slowly hydrolyzed analogue) of 0.1 s⁻¹.
For the compound `CNc1ccccc1C(=O)O[C@H]1C[C@H](n2cnc3c(N)ncnc32)O[C@@H]1COP(=O)(O)OP(=O)(O)O` [Mant-deoxyADP], on RecG [1] (setting [6]), affinity was put at a Ki of 100 nM.
With `CNc1ccccc1C(=O)O[C@H]1C[C@H](n2cnc3c(N)ncnc32)O[C@@H]1COP(=O)(O)OP(=O)(O)OP(=O)(O)O` [Mant-deoxyATP, 3′-mant-2′-deoxyATP], at RecG [1] (setting [7]), the K m is listed as 3.1 (±1.4) µM and the k cat is listed as 1.3 (±0.5) s^−1.
Broadly, the Kd is the concentration at which binding is half-saturated. A higher Kd goes with a looser complex. Regarding `CNc1ccccc1C(=O)O[C@H]1[C@@H](O)[C@H](n2cnc3c(N)ncnc32)O[C@@H]1COP(=O)(O)OP(=O)(O)O` [mantADP], the “increase in fluorescence on titration with RecG” value at RecG [2] was determined as 4.8 fold. For the same compound, the “fluorescence intensity increase of bound nucleotide relative to free nucleotide” value at RecG⋅DNA(A40:B40) [3] was 4.9 fold. The “k +4 (mantADP dissociation rate constant, intercept)” value on RecG⋅DNA(A40:B40) [4] (20°C, linear fit) is less than 1 s⁻¹. At RecG⋅DNA(A40:B40) [4] (mantADP with RecG⋅DNA, used as model assumption), this compound gave a dissociation constant Kd of less than 50 nM. Further, the “increase in fluorescence on binding to RecG⋅DNA” value on RecG⋅DNA(A40:B40) [4] (same conditions as hydrolysis and Pi release measurements) is reported as 4.5 fold. Also, the Ki at RecG [1] (setting [6]) turned out to be 30 nM.
Regarding (γ-^18O3)mantATP, the “k +3 /k −2” value at RecG [5] is reported as no less than 9.

The record behind these values is article PMC3368886, “ATPase Cycle and DNA Unwinding Kinetics of RecG Helicase” (PLoS ONE, 2012).
